PubChem BioAssay (NCI)
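Assay format: 96-well plates, 48-hour exposure. Abbreviation: GI50, concentration required for 50% inhibition of growth. TGI: total growth inhibition.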

Columns and labels:
Assay in all cases: growth of human tumour cells (NCI), 48 h
[1] = tested on: MDA-MB-435
[2] = tested on: NCI-H226 lung
[3] = tested on: ACHN renal
[4] = tested on: A498 renal
[5] = tested on: CAKI-1 renal
[6] = tested on: TK-10 renal
[7] = tested on: SF-539 CNS
[8] = tested on: RPMI-8226 leukemia
[9] = tested on: RXF 393 renal
[10] = tested on: HCT-15 colon
[11] = tested on: UACC-62 melanoma
[12] = tested on: NCI-H460 lung
[13] = tested on: SK-OV-3 ovarian
[14] = tested on: SNB-75 CNS
[15] = tested on: HCC-2998 colon
[16] = tested on: SK-MEL-28 melanoma
[17] = tested on: UO-31 renal
[18] = tested on: UACC-257 melanoma
[19] = tested on: M14 melanoma
[20] = tested on: NCI/ADR-RES ovarian
[21] = tested on: NCI-H23 lung
[22] = tested on: DU-145 prostate
[23] = tested on: HL-60(TB) leukemia
[24] = tested on: SW-620 colon
[25] = tested on: KM12 colon
[26] = tested on: EKVX NSCLC
[27] = tested on: SK-MEL-2 melanoma
[28] = tested on: BT-549 breast
[29] = tested on: SK-MEL-5 melanoma
[30] = tested on: OVCAR-5 ovarian
[31] = tested on: HOP-92 NSCLC
[32] = tested on: OVCAR-3 ovarian
[33] = tested on: HCT-116 colon
[34] = tested on: SN12C renal
[35] = tested on: MDA-MB-231 breast
[36] = tested on: CCRF-CEM leukemia
[37] = tested on: SF-295 CNS

**Q.** `Cc1[nH]c(C(=O)Nc2ccccc2OCc2cccc(C(=O)NC3CCNC3)c2)c(Cl)c1Cl` (centres undefined) was tested. Which GI50 [1] did it give?
**A.** Its GI50 is 1.79 µM.

**Q.** And the TGI [1]?
**A.** Its TGI is 3.33 µM.

**Q.** What about the GI50 [2] of the same compound?
**A.** The GI50 was 15.3 µM.

**Q.** What about the TGI [2] of the same compound?
**A.** Its TGI is 47.3 µM.

**Q.** And the GI50 [3]?
**A.** Its GI50 is 3.17 µM.

**Q.** And the TGI [3]?
**A.** The TGI was 11.5 µM.

**Q.** What about the GI50 [4] of the same compound?
**A.** The GI50 was 12.6 µM.

**Q.** And the TGI [4]?
**A.** The TGI was 26.7 µM.

**Q.** What about the GI50 [5] of the same compound?
**A.** Its GI50 is 2.05 µM.

**Q.** What about the TGI [5] of the same compound?
**A.** The TGI was 5.1 µM.

**Q.** What about the GI50 [6] of the same compound?
**A.** Its GI50 is 2.86 µM.

**Q.** What about the TGI [6] of the same compound?
**A.** Its TGI is 7.19 µM.

**Q.** And the GI50 [7]?
**A.** The GI50 was 1.74 µM.

**Q.** And the TGI [7]?
**A.** Its TGI is 3.26 µM.

**Q.** And the GI50 [8]?
**A.** Its GI50 is 2.31 µM.

**Q.** What about the TGI [8] of the same compound?
**A.** Its TGI is 5.07 µM.

**Q.** What about the GI50 [9] of the same compound?
**A.** Its GI50 is 2.07 µM.

**Q.** And the TGI [9]?
**A.** The TGI was 4.9 µM.

**Q.** And the GI50 [10]?
**A.** The GI50 was 4.87 µM.

**Q.** What about the TGI [10] of the same compound?
**A.** The TGI was 22.7 µM.

**Q.** And the GI50 [11]?
**A.** The GI50 was 1.67 µM.

**Q.** What about the TGI [11] of the same compound?
**A.** Its TGI is 3.32 µM.

**Q.** And the GI50 [12]?
**A.** The GI50 was 1.9 µM.

**Q.** And the TGI [12]?
**A.** Its TGI is 3.58 µM.

**Q.** What about the GI50 [13] of the same compound?
**A.** The GI50 was 23.6 µM.

**Q.** What about the TGI [13] of the same compound?
**A.** Its TGI is 47.3 µM.

**Q.** And the GI50 [14]?
**A.** The GI50 was 1.56 µM.

**Q.** What about the TGI [14] of the same compound?
**A.** Its TGI is 4.95 µM.

**Q.** What about the GI50 [15] of the same compound?
**A.** Its GI50 is 1.91 µM.

**Q.** What about the TGI [15] of the same compound?
**A.** Its TGI is 3.55 µM.

**Q.** What about the GI50 [16] of the same compound?
**A.** Its GI50 is 1.86 µM.

**Q.** And the TGI [16]?
**A.** The TGI was 3.43 µM.

**Q.** What about the GI50 [17] of the same compound?
**A.** The GI50 was 15.4 µM.

**Q.** And the TGI [17]?
**A.** The TGI was 51.1 µM.

**Q.** What about the GI50 [18] of the same compound?
**A.** Its GI50 is 5.75 µM.

**Q.** And the TGI [18]?
**A.** The TGI was 31.1 µM.

**Q.** What about the GI50 [19] of the same compound?
**A.** Its GI50 is 1.75 µM.

**Q.** And the TGI [19]?
**A.** The TGI was 3.4 µM.

**Q.** And the GI50 [20]?
**A.** Its GI50 is over 100 µM.

**Q.** And the TGI [20]?
**A.** The TGI was over 100 µM.

**Q.** And the GI50 [21]?
**A.** Its GI50 is 1.91 µM.

**Q.** What about the TGI [21] of the same compound?
**A.** The TGI was 3.89 µM.

**Q.** And the GI50 [22]?
**A.** The GI50 was 1.88 µM.

**Q.** What about the TGI [22] of the same compound?
**A.** Its TGI is 3.37 µM.

**Q.** What about the GI50 [23] of the same compound?
**A.** The GI50 was 2.21 µM.

**Q.** And the TGI [23]?
**A.** Its TGI is 5.11 µM.

**Q.** And the GI50 [24]?
**A.** The GI50 was 1.86 µM.

**Q.** What about the TGI [24] of the same compound?
**A.** The TGI was 3.54 µM.

**Q.** What about the GI50 [25] of the same compound?
**A.** Its GI50 is 1.94 µM.

**Q.** What about the TGI [25] of the same compound?
**A.** Its TGI is 3.69 µM.

**Q.** And the GI50 [26]?
**A.** The GI50 was 1.95 µM.

**Q.** What about the TGI [26] of the same compound?
**A.** Its TGI is 4.64 µM.

**Q.** And the GI50 [27]?
**A.** The GI50 was 19 µM.

**Q.** What about the TGI [27] of the same compound?
**A.** Its TGI is 57.1 µM.

**Q.** And the GI50 [28]?
**A.** The GI50 was 5.15 µM.

**Q.** And the TGI [28]?
**A.** Its TGI is 25.1 µM.

**Q.** What about the GI50 [29] of the same compound?
**A.** The GI50 was 5.25 µM.

**Q.** And the TGI [29]?
**A.** The TGI was 19.2 µM.

**Q.** And the GI50 [30]?
**A.** The GI50 was 1.76 µM.

**Q.** What about the TGI [30] of the same compound?
**A.** The TGI was 3.24 µM.

**Q.** What about the GI50 [31] of the same compound?
**A.** The GI50 was 3.57 µM.

**Q.** And the TGI [31]?
**A.** Its TGI is 20.5 µM.

**Q.** What about the GI50 [32] of the same compound?
**A.** Its GI50 is 1.89 µM.

**Q.** What about the TGI [32] of the same compound?
**A.** The TGI was 3.44 µM.

**Q.** And the GI50 [33]?
**A.** The GI50 was 1.85 µM.

**Q.** What about the TGI [33] of the same compound?
**A.** The TGI was 3.67 µM.

**Q.** And the GI50 [34]?
**A.** Its GI50 is 11 µM.

**Q.** And the TGI [34]?
**A.** The TGI was 27.7 µM.

**Q.** And the GI50 [35]?
**A.** The GI50 was 1.88 µM.

**Q.** And the TGI [35]?
**A.** Its TGI is 3.59 µM.

**Q.** And the GI50 [36]?
**A.** Its GI50 is 1.91 µM.

**Q.** What about the TGI [36] of the same compound?
**A.** The TGI was 4.46 µM.

**Q.** And the GI50 [37]?
**A.** Its GI50 is 4.52 µM.

**Q.** What about the TGI [37] of the same compound?
**A.** The TGI was 38.9 µM.
